Type in all cases: in vivo, C57b1/6 mice
The test system of assay [1] is crypt cells. Briefly: TUNEL assay for apoptosis of crypt cells after gamma ray irradiation. How it is done: (§1) 8-week-old C57b1/6 mice (Central Lab Animal Inc., Seoul, Korea) were irradiated with gamma rays to establish an animal model of gastrointestinal damage, and gastrointestinal protective and regenerative effects of Substance-P were then examined.
(§2) For this purpose, C57b1/6 mice were divided into two groups, an experimental group and a control group, each consisting of 5 animals (n=5). 100 nM of Substance-P (Cat. No. 05-23-0600, Calbiochem) was injected to the experimental group mice via tail vein, 24 hours prior to gamma ray irradiation. 24 hours later, animals were irradiated with a gamma irradiator at a dose of 7.6 Gy. Immediately after gamma ray irradiation, 100 nM of Substance-P was intravenously injected once more into animals of the experimental group. The control group was given PBS.
4.5 hours, 3 days, and 7 days later, mice of each group were euthanized by CO2 asphyxiation and then received abdominal incision. […]
Dead cells were detected by fluorescence labeling of damaged DNA molecules through TUNEL assay using an In Situ Cell Death Detection Kit (Cat. No. 1 684 795, Roche Molecular Biochemicals).
The tissue section slide was deparaffinized with xylene and hydrated in alcohol. […] Nuclear staining was carried out using 4′,6-diamidino-2-phenylindole (DAPI, Cat. No. D-9542, Sigma) and the stained tissue was examined in a green field of 515 to 565 nm under a fluorescence microscope.

The test system of assay [2] is crypt cells. The assay is described as follows: Brd-U immunohistochemical staining for proliferation of crypt cells after gamma ray irradiation. How it is done:
as §1, §2
(§3) Small intestines were isolated and fixed in a 3.7% formaldehyde solution for tissue fixation, for 1 to 2 days. Following the tissue processing process, the tissues were hardened in a paraffin block. The formalin-fixed paraffin tissues were sectioned to a 5 μm thickness using a microtome and then attached to a coated slide glass which was then dried, followed by TUNEL staining, Brd-U immunostaining and H&E staining. For Brd-U immunostaining, 2 hours prior to sacrifice of mice, 50 mg/kg of 5-bromo-2-deoxyuridine (Brd-U, Cat. No. B-9285, Sigma) was introduced into dividing cells by peritoneal injection.
Proliferative effects of Substance-P on crypt cells were examined by Brd-U immunohistochemical staining.
The tissue section slide was deparaffinized with xylene and hydrated in alcohol. The tissue section was pretreated with 2N HCl for 30 min, and endogenous peroxidase activity was blocked with addition of H2O2 for 10 min. The tissue section was treated with 0.3% Triton X-100 for 5 min to increase cell permeability. Then, 2% serum in a Vector ABC kit (PK-6100, Vector Laboratories Inc.) was added to block the cells. BrdU antibodies (Cat. No. 1 170 376, Roche Molecular Biochemicals) and 2% serum were diluted in a ratio of 6:100, followed by reaction at room temperature for 1 hour. […]

In assay [3] the test system is crypt cells and villi of small intestine. Briefly: H&E staining: crypt cell counts and villous heights after gamma ray irradiation. How it is done: as §1, §2
as §3, with “4.5 hours, 3 days, and 7 days later, mice of each group were euthanized by CO2 asphyxiation and then received abdominal incision. Small” for “Small”
After the tissue section slide was H&E-stained and photographed, crypt cell counts and villous heights were measured and averaged, respectively.

Where [4] appears, read: radiation-induced gastrointestinal damage in mice, vs non-treated control group.

“Also recorded” adds a separate entry of the source. Where no end group is shown, it is not given here.

With “Substance-P (RPKPQQFFGLM-NH2; ends and bridges not checked; UniProt P20366 58-68, looked up) [11-amino acid neuropeptide; Cat. No. 05-23-0600, Calbiochem]”, the “apoptosis of crypt stem cells (TUNEL)” value in assay [1] (4.5 hours after 7.6 Gy gamma rays, Substance-P 100 nM i.v. 24 h before and immediately after irradiation, vs control group (PBS)) is given as “significant reduction in apoptosis of crypt stem cells”. In assay [1] (setting [4]), the “apoptotic rate of crypt cells, summary statement” value is “significantly lower apoptotic rate of crypt cells; also recorded: apoptosis of stem cells is decreased”. Besides, the “BrdU staining of dividing crypt cells” value in assay [2] (Day 1 after gamma ray irradiation, with vs without Substance-P) is listed as “no significant difference in staining of cells”; in assay [2] (Day 3 after gamma ray irradiation), “intense staining in large numbers of cells”. In addition, the “gastrointestinal recovery through crypt hyperplasia, conclusion from BrdU staining” value in assay [2] (after gamma ray irradiation (FIG. 2)) was “earlier gastrointestinal recovery”. Moreover, in assay [3] (Day 3 after irradiation, vs group without Substance-P), the “villous atrophy (villous height)” value is “less villous atrophy”. For the same substance, the “number of viable crypt cells (crypt cell survival)” value in assay [3] (Days 1, 3 and 7 after irradiation (FIG. 3), vs group without Substance-P) is given as “higher number of viable crypt cells”. In assay [3] (setting [4]), the “recovery of damaged crypt cells and villi / recovery time from gastrointestinal damage, summary statement” value was “faster recovery of damaged crypt cells and villi to a normal state; also recorded: recovery time from gastrointestinal damage is also shortened”.

The values above are taken from patent publication US7846901B2, “Method for inhibiting or treating intestinal damage caused by radiotherapy or chemotherapy comprising administering substance-P” (University-Industry Cooperation Group of Kyunghee University, priority 2007, dated 2010).
